Laboratory results: patent publication US6448269B1 (Eli Lilly and Company, priority 1993, dated 2002)
Where a name gives a salt, the structure may show the parent alone.

How the values were obtained:
GPIIb-IIIa = molecular target: T1, GPIIb-IIIa (Homo sapiens, UniProt P05106+P08514); test: ELISA IIb-IIIa assay (fibrinogen binding to immobilized GPIIb-IIIa); conditions: purified platelet GPIIb-IIIa receptor coated on ELISA plates; biotin-labeled fibrinogen 10 nM, 3 hours at 25° C.
T1 construct: Purified platelet GPIIb-IIIa receptor was prepared as described by Fitzgerald; from tissue; host or cells: platelets
T1 sequence (P08514 32-887 limits assumed): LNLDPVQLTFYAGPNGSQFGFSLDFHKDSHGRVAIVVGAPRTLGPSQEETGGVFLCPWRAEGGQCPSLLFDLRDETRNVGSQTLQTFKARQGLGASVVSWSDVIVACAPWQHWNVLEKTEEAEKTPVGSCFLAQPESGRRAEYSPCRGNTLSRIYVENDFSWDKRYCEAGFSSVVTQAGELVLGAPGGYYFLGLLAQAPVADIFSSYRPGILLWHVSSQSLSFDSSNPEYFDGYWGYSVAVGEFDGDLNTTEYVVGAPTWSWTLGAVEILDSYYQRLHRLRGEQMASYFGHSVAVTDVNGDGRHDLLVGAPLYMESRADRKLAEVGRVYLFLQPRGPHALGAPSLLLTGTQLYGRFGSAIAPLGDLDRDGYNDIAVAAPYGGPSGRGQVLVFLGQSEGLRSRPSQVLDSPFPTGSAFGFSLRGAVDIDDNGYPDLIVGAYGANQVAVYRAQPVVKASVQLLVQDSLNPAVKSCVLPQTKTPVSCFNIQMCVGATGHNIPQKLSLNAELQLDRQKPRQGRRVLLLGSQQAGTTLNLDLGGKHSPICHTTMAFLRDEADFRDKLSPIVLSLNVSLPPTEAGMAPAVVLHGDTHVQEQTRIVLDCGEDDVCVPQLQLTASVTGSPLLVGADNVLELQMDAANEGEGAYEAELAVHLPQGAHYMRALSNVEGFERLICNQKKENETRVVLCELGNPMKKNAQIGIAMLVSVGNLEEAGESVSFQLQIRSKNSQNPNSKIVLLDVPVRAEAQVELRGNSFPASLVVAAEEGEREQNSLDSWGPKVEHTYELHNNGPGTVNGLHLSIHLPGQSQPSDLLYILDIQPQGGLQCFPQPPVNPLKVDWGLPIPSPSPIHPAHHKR
T1 sequence (P05106 27-788): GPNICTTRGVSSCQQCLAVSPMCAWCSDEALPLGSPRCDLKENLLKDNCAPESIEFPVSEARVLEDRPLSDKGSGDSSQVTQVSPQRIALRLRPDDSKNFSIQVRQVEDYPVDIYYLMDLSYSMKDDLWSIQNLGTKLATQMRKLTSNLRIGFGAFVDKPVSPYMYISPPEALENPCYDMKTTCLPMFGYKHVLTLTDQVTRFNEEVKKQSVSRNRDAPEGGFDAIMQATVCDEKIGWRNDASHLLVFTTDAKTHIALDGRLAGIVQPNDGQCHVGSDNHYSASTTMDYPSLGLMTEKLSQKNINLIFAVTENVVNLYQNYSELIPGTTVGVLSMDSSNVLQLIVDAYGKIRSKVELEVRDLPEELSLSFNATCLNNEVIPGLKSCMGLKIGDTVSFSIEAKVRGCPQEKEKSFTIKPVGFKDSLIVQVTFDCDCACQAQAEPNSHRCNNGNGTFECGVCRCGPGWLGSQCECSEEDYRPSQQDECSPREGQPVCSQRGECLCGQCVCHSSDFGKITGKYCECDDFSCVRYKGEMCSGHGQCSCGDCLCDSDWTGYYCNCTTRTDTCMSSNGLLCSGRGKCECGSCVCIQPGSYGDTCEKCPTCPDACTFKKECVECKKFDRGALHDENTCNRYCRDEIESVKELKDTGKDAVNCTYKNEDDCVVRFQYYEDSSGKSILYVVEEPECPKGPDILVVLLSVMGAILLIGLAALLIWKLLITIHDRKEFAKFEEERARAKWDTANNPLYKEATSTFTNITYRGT
Protocol: In the following assay, GPIIb-IIIa is prepared in purified form, by a method such as described by Fitzgerald, L. A., et al., Anal Biochem (1985) 151:169-177, (the disclosure of which is incorporated herein by reference). GPIIb-IIIa is coated onto microtiter plates. The coated support is then contacted with fibrinogen and with the test material (e.g., compounds of Formula I) and incubated for a sufficient time to permit maximal binding of fibrinogen to the immobilized GPIIb-IIIa. Fibrinogen is typically provided at a concentration of about 5-50 nM and the test material can, if desired, be added at a series of dilution. Typical incubations are 2 to 4 hours at 25° C., the time and temperature being interdependent.
After incubation, the solution containing the fibrinogen and test material is removed and the level of binding of fibrinogen measured by quantitating bound fibrinogen to GPIIb-IIIa. Any suitable means of detection may be used, but it is convenient to employ labeled fibrinogen, for example using biotinylated labels. Such methods are well known in the art.
Purified platelet GPIIb-IIIa receptor was prepared as described by Fitzgerald, L. A., et al., Anal Biochem (1985) 151:169-177 (1985). Vitronectin receptor was prepared as described by Smith, J. W., J. Biol Chem (1988) 263:18726-18731. After purification, the receptors were stored in 0.1% Triton X-100 at 0.1-1.0 mg/ml.
The receptors were coated to the wells of 96-well flat-bottom ELISA plates (Linbro EIA-Plus microtiter plate, Flow Laboratories) after diluting 1:200 with a solution of 20 mM Tris-HCl, 150 mM NaCl, 1 mM CaCl2, pH 7.4, to reduce the Triton X-100 concentration to below its critical micellar concentration and adding an aliquot of 100 ul to each well. The wells were all allowed to incubate overnight at 4° C., and then aspirated to dryness. Additional sites were blocked by the addition of bovine serum albumin (BSA) at 35 mg/ml in the above buffer for 2 hours at 30° C. to prevent nonspecific binding. The wells were then washed once with binding buffer ([…] Tris-HCl, 100 mM NaCl 2 mM CaCl2, 1 mg/ml BSA).
The corresponding ligands (fibrinogen, von Willebrand Factor, or vitronectin) were conjugated to biotin using commercially available reagents and standard protocols. The labeled ligands were added to the receptor-coated wells at final concentration of 10 nM (100 ul/well) and incubated for 3 hours at 25° C. in the presence or absence of the test samples. After incubation, the wells are aspirated to dryness and bound ligand is quantitated.
The bound protein is detected by the addition of antibiotin antibody conjugated to alkaline phosphatase followed by addition of substrate (p-nitrophenyl phosphate), and determination of the optical density of each well at […]. Decreased color development is observed in wells incubated with test samples which inhibit binding of ligand to receptor.

[1] = system: human platelet-rich plasma; test: Platelet aggregation assay (Aggregation-Human PRP/ADP); assay type: cell-based; conditions: 1 min; human platelet-rich plasma incubated with compound 1 minute at 37° C.; ADP-induced aggregation; read-out: Agg: Human PRP/ADP IC50uM
Protocol: Platelet-rich plasma was prepared from healthy human volunteers for use in determining inhibition of platelet aggregation by the compounds.
Platelet-rich plasma was prepared at room temperature by centrifugation of the citrated whole blood at 100×g for 12 minutes. The platelet rich plasma contained approximately 200-400,000 platelets/μl.
Platelet-poor plasma was prepared by centrifugation of citrated whole blood at 12,000×g for 2 minutes.
Platelet aggregation was assayed in a 4-channel platelet aggregation profiler (PAP-4, Biodata, Hatboro, Pa.) according to the manufacturers directions. Inhibition of platelet aggregation was studied by adding varying amounts of […] to stirred human platelet-rich plasma. Specifically, the human platelet-rich plasma was incubated with the compound being tested for 1 minute at 37° C. prior to the addition of a variety of aggregating agents most often ADP 5 μM, but also 1 μg/ml collagen, 1 μM U46619 and 0.3 μM platelet activating factor.

SMILES | IC50 (GPIIb-IIIa) | IC50 [1]
N=C(N)c1ccc(COc2ccc3c(c2)CCN(C(CC(=O)O)c2ccccc2)C3=O)cc1 (racemic) [Example 16, (+−)-6-[[4-(Aminoiminomethyl)phenyl]methoxy]-3,4-dihydro-1-oxo-b-phenyl-(1H)-isoquinoline Propanoic Acid Trifluoroacetate] | 7 nM | 0.2 µM
N=C(N)c1cccc(CCc2ccc3c(c2)CCN(CC(=O)O)C3=O)c1 [Example 18, 6-[2-[3-(Aminoiminomethyl)phenyl]ethyl]-3,4-dihydro-1-oxo-2(1H)-isoquinoline Acetic Acid Trifluoroacetate] | 11000 nM | > 100 µM
N=C(N)c1ccc(C(=O)Nc2ccc3c(c2)CCC(/C=C/C(=O)O)C3)cc1 (stereo not shown) [Example 37] | 100 nM | 4.4 µM
CCC(CC(=O)O)N1CCc2cc(OCc3ccc(C(=N)N)cc3)ccc2C1=O (racemic) [Example 14, (+−)-6-[[4-(Aminoiminomethyl)phenyl]methoxy]b-ethyl-3,4-dihydro-1-oxo-2(1H)-isoquinoline Propanoic Acid Trifluoroacetate] | 45 nM | 0.4 µM
CCCCC(CC(=O)O)N1CCc2cc(OCc3ccc(C(=N)N)cc3)ccc2C1=O (racemic) [Example 11, (+−)-6-[[4-(Aminoiminomethyl)phenyl]methoxy]-b-butyl-3,4-dihydro-1-oxo-2(1H)-isoquinoline Propanoic Acid Trifluoroacetate] | 40 nM | 0.6 µM
COc1ccc(CCNC(=O)C(CC(=O)O)N2CCc3cc(OCc4ccc(C(=N)N)cc4)ccc3C2=O)cc1 (racemic) [Example 7, (+−)-6-[[4-(Aminoiminomethyl)phenyl]methoxy]-3,4-dihydro-1-oxo-beta-[[(4-methoxyphenyl Ethyl)amino]carbonyl]-2(1H)-isoquinoline Propanoic Acid Trifluoroacetate] | 15 nM | 2 µM
CCOCCCC(CC(=O)O)N1CCc2cc(OCc3ccc(C(=N)N)cc3)ccc2C1=O (racemic) [Example 10, (+−)-6-[[4-(Aminoiminomethyl)phenyl]methoxy]-b-(3-ethoxypropyl)-3,4-dihydro-1-oxo-2(1H)-isoquinoline Propanoic Acid Trifluoroacetate] | 61 nM | 0.47 µM
N=C(N)c1ccc(C(=O)Nc2ccc3c(c2)CCC(CC(=O)O)O3)c(F)c1 (racemic) [Example 70, rac-(6-(N-(4-(Aminoiminomethyl)-2-fluorobenzoyl)amino)-3,4-dihydro-2H-1-benzopyran-2-yl)acetic Acid] | 1.3 nM | 0.082 µM
N=C(N)c1ccc(C(=O)Nc2ccc3c(c2)CCC(CC(=O)O)O3)cc1 (racemic) [Example 48, rac-(6-(N-(4-(Aminoiminomethyl)benzoyl)amino)-3,4-dihydro-2H-1-benzopyran-2-yl)acetic Acid] | 4 nM | 0.066 µM
N=C(N)c1ccc(C(=O)Nc2ccc3c(c2)CCN(CC(=O)O)C3=O)cc1 [Example 4, 6-[[(4-(Aminoiminomethyl)benzoy]amino]-3,4-dihydro-1-oxo-2(1H)-isoquinoline Acetic Acid Trifluoroacetate] | 3.3 nM | 0.1 µM
N=C(N)c1ccc(C#Cc2ccc3c(c2)CCN(CC(=O)O)C3=O)cc1 [Example 2, 6-[[4-(Aminoiminomethyl)phenyl]ethynyl]-3,4-dihydro-1-oxo-2(1H)-isoquinoline Acetic Acid Trifluoroacetate] | 30 nM | 0.52 µM
N=C(N)c1ccc(C(=O)Nc2ccc3c(c2)CCC(CC(=O)O)C3)cc1 (stereo not shown) [Example 28] | 5 nM | 0.19 µM
N=C(N)c1ccc(C(=O)Nc2ccc3c(c2)CCC(CCC(=O)O)C3)cc1 (stereo not shown) [Example 38] | 240 nM | 2.8 µM
O=C(O)CC1CCc2cc(NC(=O)/C=C/C3CCNCC3)ccc2O1 (racemic) [Example 78, rac-(3,4-Dihydro-6-(N-(3-(piperidine-4-yl)propenoyl)amino)-2H-1-benzopyran-2-yl)acetic Acid] | 20 nM | 0.18 µM
N=C(N)c1ccc(C(=O)Nc2ccc3c(c2)CCC(CC(=O)O)=C3)cc1 [Example 31] | 16 nM | 15 µM
N=C(N)c1ccc(COc2ccc3c(c2)CCN(CC(=O)O)C3=O)cc1 [Example 1, 6-[[4-(Aminoiminomethyl)phenyl]methoxy]-3,4-dihydro-1-oxo-2(1H)-isoquinoline Acetic Acid Trifluoroacetate] | 600 nM | 20 µM
N=C(N)c1ccc(COc2ccc3c(c2)CCN(C(CC(=O)O)C(=O)NCc2ccccc2)C3=O)cc1 (racemic) [Example 6, (+−)-6-[[4-(Aminoiminomethyl)phenyl]methoxy]-3,4-dihydro-1-oxo-beta-[[(phenylmethyl)amino]carbonyl]-2(1H)-isoquinoline Propanoic Acid Trifluoroacetate] | 50 nM | 0.7 µM
